This is an account of results in patent US20260216179A1, “1,5-NAPHTHYRIDINE DERIVATIVES AS KRAS ONCOPROTEIN INHIBITORS” (Beta Pharma, Inc., priority 2022, published 2026).

Like-named read-outs stand apart in the source and are kept apart here. Where only a bound is given, the exact number is not on record here.

The target of data set [1] is T1, KRAS G12C (Homo sapiens, UniProt P01116, G12C). Description: KRAS G12C/SOS1 nucleotide exchange assay (Bodipy-GDP to GTP exchange). Details: KRAS G12C or KRAS G12D (aa 2-169, expressed in E. coli); His-tag (TEV cleavable) (N); purchased Reaction Biology Corporation (RBC), which ran the assay MSC-11-502 (SOS1 only; none given for KRAS); host or cells: E. coli. As to conditions: SOS1-mediated Bodipy-GDP/KRAS G12C exchange; dRFU analysis method for covalent inhibitors; 30 min pre-incubation at RT; 0.5% DMSO. Format: biochemical. How it is done:
(§1) The biological activity of the Examples was determined in a KRAS
(§2) The assay evaluates the SOS1-mediated Bodipy-GDP to GTP exchange observed with KRAS G12C and KRAS G12D.
(§3) Reaction Buffer: 40 mM HEPES 7.4, 10 mM MgCl2, 1 mM DTT 0.002% Triton X100, 0.5% DMSO.
• 1. Deliver 10 μL of 1.5× KRAS solution in freshly prepared reaction buffer to reaction wells. • 2. Deliver compounds in 100% DMSO into buffer using acoustic technology (Echo550; nanoliter range). • 3. Incubate compounds with KRAS for 30 minutes at room temperature. • 4. Prepare 3× (SOS1+GTP) solution in reaction buffer. • 5. Deliver 5 μL of SOS1+GTP solution into reactions wells (deliver GTP only to column 1 for no SOS1 control). • 6.
Data Analysis: The fluorescence data was normalized using the equation below and fitted to “one phase exponential decay” equation using GraphPad prism software. The plateau was fixed to zero (use for non-covalent inhibitors) and rate ×1000 was used to calculate the IC50 values.
(§4) where Yraw is defined as fluorescence at time t, Ao is the average initial fluorescence with no SOS1, and Mis the minimum fluorescence at the end of the reaction at the maximum SOS1.
The background subtracted signals (no SOS1 protein wells were used as background) were converted to % activity relative to DMSO controls. Data was analyzed using GraphPad Prism 4 with “sigmoidal dose-response (variable slope)”; 4 parameters with Hill Slope. The constraints were bottom (constant equal to 0) and top (must be less than 120).
Target sequence in this assay (P01116 2-169 G12C): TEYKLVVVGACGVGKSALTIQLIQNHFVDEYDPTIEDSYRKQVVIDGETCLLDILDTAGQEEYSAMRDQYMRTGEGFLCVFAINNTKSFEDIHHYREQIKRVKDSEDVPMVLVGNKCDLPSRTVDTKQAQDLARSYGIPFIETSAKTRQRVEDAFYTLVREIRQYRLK

Data set [2] can be described thus: PK profile in male CD1 mice. Format: in vivo. Conditions: for MRT inf: read-out: MRT0-inf; for MRT last: read-out: MRT0-last. The source says:
PK Profile in male CD1 mice:

For data set [3], the target named is T1, KRAS G12C. Put plainly: NanoBRET target engagement cellular assay in transiently transfected HEK293 cells. Format: cell-based. The arrangement: expressed in transfected cells; host or cells: HEK293, transiently transfected. As to conditions: RAS tracer K2 1 μM, 2 hours at 37° C. How it is done: KRAS G12C cellular activity was determined in a target engagement cellular assay (NanoBRET™) in transiently transfected HEK293 cells by Reaction Biology Corporation (RBC), 1 Great Valley Parkway, Suite 2 Malvern, PA 19355, USA. HEK293 were cultivated to 70-80% confluence prior to the assay followed by trypsinizing and collection of the cells. BI-2852 was used as the KRAS G12C reference compound. Each test compound solution was delivered from a compound source plate to the wells of 384-well white non-binding surface plate by an Echo 550 prior to the assay.
A 10 μg/mL solution of DNA in Opti-MEM was prepared without serum that consisted of 1 μg LgBiT®-KRAS (G12C)-NanoLuc fusion vector, 1 μg SmBIT®-KRAS (G12C)-NanoLuc fusion vector and 8 μg transfection carrier DNA. This mixture was subsequently treated with 30 μL of FuGENE HD Transfection Reagent into each milliliter of DNA mixture to form a lipid: DNA complex. The resulting mixture was then gently mixed by inversion and incubated at ambient temperature for 20 minutes to allow complexes to form. A mixture of 1 part of lipid: DNA complex with 20 parts of suspended HEK293 cells was added to a sterile conical tube and mixed gently by inversion. The cells+lipid: DNA complex mixture was then added to a sterile tissue culture dish and incubated for 24 hours. The medium was removed from the dish via aspiration followed by trypsinizing and allowing the cells to dissociate from the tissue culture dish. The trypsin was subsequently neutralized by using medium containing serum and centrifugation at 200×g for 5 minutes to pellet the cells in the conical tube. The cell density was adjusted to 2×10^5 cells/mL in Opti-MEM without phenol red. One part of Complete 20× NanoBRET™ RAS Tracer Reagent was dispensed to 20 parts of cells in the conical tube and mixed gently by inversion. The resulting cell suspension was dispensed into a white, 384-well NBS plate containing the test compounds (starting at 10 μM, 10-dose with 3-fold dilution) at 37° C., 5% CO2 for 2 hours. The final concentration for RAS tracer K2 was 1 μM. […]
Freshly prepared substrate solution (3×) in the assay medium was added to each well of the 384-well NBS plate and incubated for 3 minutes at room temperature. The donor emission wavelength (460 nm) and acceptor emission wavelength (600 nm) were measured using an Envision 2104 plate reader. […] The BRET ratio was calculated using the following equation: BRET Ratio= [(Acceptor sample÷Donor sample)−(Acceptor no-tracer control[…]Donor no-tracer control)]. The normalized BRET response (%) was calculated by the following equation: (BRET ratio of test compound/BRET ratio of DMSO control)*100%. The IC50 curves were plotted and IC50 values were calculated with GraphPad Prism 4 based on a sigmoidal dose-response equation.
Target sequence in this assay (P01116 1-186 isoform P01116-2 G12C limits assumed): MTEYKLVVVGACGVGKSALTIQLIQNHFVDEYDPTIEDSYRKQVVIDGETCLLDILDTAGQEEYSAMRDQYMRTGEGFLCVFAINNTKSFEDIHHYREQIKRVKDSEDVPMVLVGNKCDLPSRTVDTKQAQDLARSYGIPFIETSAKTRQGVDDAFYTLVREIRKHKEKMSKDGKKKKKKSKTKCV
Target sequence in this assay (P01116 1-186 isoform P01116-2 G12C limits assumed): as above
For orientation: Bioluminescence resonance energy transfer reports proximity on the nanometre scale.

The next data set concerns MIA PaCa-2 cells. Description: CellTiter-Glo viability assay. Format: cell-based. Conditions: Homo sapiens, 72 hours, read-out: CTG Assay IC50 Values. For orientation: In ATP-based viability assays light output follows the ATP content of the culture.
A further data set has as its target T2, KRAS G12D (Homo sapiens, UniProt P01116, G12D).
T2 construct: KRAS G12C or KRAS G12D (aa 2-169, expressed in E. coli); His-tag (TEV cleavable) (N); purchased Reaction Biology Corporation (RBC), which ran the assay MSC-11-502 (SOS1 only; none given for KRAS); host or cells: E. coli
Put plainly: KRAS G12D/SOS1 nucleotide exchange assay (Bodipy-GDP to GTP exchange). Type of data set: biochemical. As to conditions: SOS1-mediated Bodipy-GDP/KRAS G12D exchange; rate constant method (plateau = 0) for reversible inhibitors; 30 min pre-incubation at RT; 0.5% DMSO. How it is done: as §1, §2
The compound pre-incubation time was 30 min at RT and the curve fits were performed when the activities at the highest concentration of compounds were less than 65%.
as §3
• 1. Deliver 10 μL of 1.5× KRAS solution in freshly prepared reaction buffer to reaction wells. • 2. Deliver compounds in 100% DMSO into buffer using acoustic technology (Echo550; nanoliter range). • 3. Incubate compounds with KRAS for 30 minutes at room temperature. • 4. Prepare 3× (SOS1+GTP) solution in reaction buffer. • 5. […]
Data Analysis: The fluorescence data was normalized using the equation below and fitted to “one phase exponential decay” equation using GraphPad prism software. […]
as §4
The background subtracted signals (no SOS1 protein wells were used as background) were converted to % activity relative to DMSO controls. Data was analyzed using GraphPad Prism 4 with “sigmoidal dose-response (variable slope)”; 4 parameters with Hill Slope. […]

Setting [4] is: 3 mg/kg, i.v., single dose, mean plasma.
[5] abbreviates: 30 mg/kg, p.o., single dose, mean plasma.
Where [6] appears, read: mouse, iv, 3 mg/kg, i.v., single dose, mean plasma.
The mark [7] stands for this setting: mouse, iv, 3 mg/kg, single dose, mean plasma.
Where [8] appears, read: mouse, po, 30 mg/kg, p.o., single dose, mean plasma.
The mark [9] stands for this setting: mouse, po, 30 mg/kg, single dose, mean plasma.

T2 sequence (P01116 2-169 G12D): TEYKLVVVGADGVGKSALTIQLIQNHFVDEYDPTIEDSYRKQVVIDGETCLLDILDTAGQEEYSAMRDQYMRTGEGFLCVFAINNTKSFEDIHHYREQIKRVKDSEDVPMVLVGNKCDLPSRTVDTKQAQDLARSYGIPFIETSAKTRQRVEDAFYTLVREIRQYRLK
Experimental for MIA PaCa-2 cells: The reference compound staurosporine was purchased from Sigma-Aldrich (Saint Louis, MI). CellTiter-Glo® 2.0 Luminescent cell viability assay reagent was purchased from Promega (Madison, WI). MIA PaCa-2 cell line was purchased from American Type Culture Collection (Manassas, VA). MIA PaCa-2 cells were cultured in DMEM containing 10% FBS, 2.5% horse serum, 100 μg/ml of penicillin and 100 μg/ml of streptomycin. Cultures were maintained at 37° C. in a humidified atmosphere of 5% CO2 and 95% air.
Test compounds and reference compound, staurosporine, were diluted in DMSO solution with 10-dose and 3-fold dilution in a source plate starting at 10 mM. • 2. 25 nL of test compounds or 25 nL of staurosporine was delivered from the source plate to each well of the 384-well cell culture plate by Echo 550. • 3. 25 μL of culture media containing 2000 cells was added to each of the wells of the cell culture plate in duplicate. • 4. The cells were incubated with the compounds at 37° C., 5% CO2 for 72 hours. • 5. […] Luminescence was recorded by Envision 2104 Multilabel Reader (PerkinElmer, Santa Clara, CA). The number of viable cells in culture was determined based on quantitation of the ATP present in each culture well. • 8. The IC50 curves were plotted and IC50 values were calculated using the GraphPad Prism 4 program based on a sigmoidal dose-response equation

In the case of `C=CC(=O)N1CCN(c2cc(OC[C@@]34CCCN3C[C@H](F)C4)nc3cc(-c4cccc5cccc(Cl)c45)cnc23)C[C@@H]1CC#N` [Example 7, 2-((S)-1-acryloyl-4-(7-(8-chloronaphthalen-1-yl)-2-(((2R,7aS)-2-fluorotetrahydro-1H-pyrrolizin-7a(5H)-yl)methoxy)-1,5-naphthyridin-4-yl)piperazin-2-yl)acetonitrile], at KRAS G12C [1], the 50% inhibitory concentration (IC50) was found to be 31 nM.
Consider `C=CC(=O)N1CCN(c2cc(OCC34CCCN3CCC4)nc3cc(-c4cccc5cccc(Cl)c45)cnc23)C[C@@H]1CC#N` [Example 5, (S)-2-(1-acryloyl-4-(7-(8-chloronaphthalen-1-yl)-2-((tetrahydro-1H-pyrrolizin-7a(5H)-yl)methoxy)-1,5-naphthyridin-4-yl)piperazin-2-yl)acetonitrile], for which, in data set [2] (setting [4]), the AUCExtra is 2.52%, the AUMCExtra worked out at 14.3% and the Tlast stood at 8.00 h. For the same compound, in data set [2] (setting [5]), the AUCExtra was found to be 0.315%, the AUMCExtra turned out to be 1.85% and the Tlast is 24.0 h. In data set [2] (setting [6]), the MRT inf worked out at 1.77 h and the MRT last was 1.56 h. Moreover, the Vd in data set [2] (mouse, iv, 3 mg/kg, i.v., single dose, mean plasma, read-out: Vdss) is 7.7 L/kg. Also, in data set [2] (setting [7]), the AUC(0-inf) is 691 ng·h/mL, the exposure AUC(0-t) stood at 673 ng·h/mL, the C0 worked out at 800 ng/mL and the clearance was found to be 72.4 mL/min/kg. In data set [2] (setting [7]), this compound had a half-life of 1.42 h. Moreover, in data set [2] (mouse, plasma, oral, 30 mg/kg, p.o., single dose vs 3 mg/kg i.v.), the bioavailability was determined as 21.7%. Besides, in data set [2] (setting [8]), the MRT inf stood at 4.79 h and the MRT last came out at 4.72 h. Further, in data set [2] (setting [9]), the AUC(0-inf) was 1500 ng·h/mL, the AUC(0-t) was 1500 ng·h/mL, the concentration peaked (Cmax) at 249 ng/mL and the Tmax came out at 1 h. The half-life in data set [2] (setting [9]) is 2.85 h. On KRAS G12C [3], this compound returned an IC50 of less than 0.5 nM. For the same compound, in the data set with MIA PaCa-2 cells, the half-maximal inhibitory concentration (IC50) worked out at 2880 nM. Besides, the IC50 on KRAS G12C [1] is 38 nM.
In the case of `Cn1cnc(Cn2ccc3ccc(CNCc4[nH]c5ccccc5c4[C@H]4NC(=O)c5ccc(O)cc54)cc32)c1` [BI-2852, reference compound], the IC50 on KRAS G12C [3] amounted to 320 nM.
On to `CC(=O)c1c(F)ccc2cc(O)cc(-c3cnc4c(N5C[C@H]6CC[C@@H](C5)N6)cc(OC[C@@]56CCCN5C[C@H](F)C6)nc4c3)c12` [Example 3, 1-(8-(8-((1R,5S)-3,8-Diazabicyclo[3.2.1]octan-3-yl)-6-(((2R,7aS)-2-fluorotetrahydro-1H-pyrrolizin-7a(5H)-yl)methoxy)-1,5-naphthyridin-3-yl)-2-fluoro-6-hydroxynaphthalen-1-yl)ethan-1-one], for which, at KRAS G12D, the IC50 was 1500 nM.
`C=C(F)C(=O)N1CCN(c2cc(OC[C@@H]3CCCN3C)nc3cc(-c4cccc5cccc(Cl)c45)cnc23)C[C@@H]1CC#N` [Example 2, 2-((S)-4-(7-(8-Chloronaphthalen-1-yl)-2-(((S)-1-methylpyrrolidin-2-yl)methoxy)-1,5-naphthyridin-4-yl)-1-(2-fluoroacryloyl)piperazin-2-yl)acetonitrile] came in with an IC50 on KRAS G12C [1] of 130 nM.
On to `C=CC(=O)N1CCN(c2cc(OC[C@@H]3CCCN3C)nc3cc(-c4cccc5cccc(Cl)c45)cnc23)C[C@@H]1CC#N` [Example 1, 2-((S)-1-Acryloyl-4-(7-(8-chloronaphthalen-1-yl)-2-(((S)-1-methylpyrrolidin-2-yl)methoxy)-1,5-naphthyridin-4-yl)piperazin-2-yl)acetonitrile], for which the half-inhibitory concentration (IC50) stood at 4.4 nM against KRAS G12C [3] and 38 nM on KRAS G12C [1].
As to `C=C(F)C(=O)N1CCN(c2cc(OC[C@@]34CCCN3C[C@H](F)C4)nc3cc(-c4cccc5cccc(Cl)c45)cnc23)C[C@@H]1CC#N` [Example 8, 2-((S)-4-(7-(8-chloronaphthalen-1-yl)-2-(((2R,7aS)-2-fluorotetrahydro-1H-pyrrolizin-7a(5H)-yl)methoxy)-1,5-naphthyridin-4-yl)-1-(2-fluoroacryloyl)piperazin-2-yl)acetonitrile], the concentration for half-maximal inhibition (IC50) against KRAS G12C [1] was 65 nM.
Regarding `Oc1cc(-c2cnc3c(N4C[C@H]5CC[C@@H](C4)N5)cc(OCC45CCCN4CCC5)nc3c2)c2ccccc2c1` [Example 4, 4-(8-((1R,5S)-3,8-Diazabicyclo[3.2.1]octan-3-yl)-6-((tetrahydro-1H-pyrrolizin-7a(5H)-yl)methoxy)-1,5-naphthyridin-3-yl)naphthalen-2-ol], inhibition at KRAS G12D was half-maximal at 1000 nM (IC50).
Regarding `C=C(F)C(=O)N1CCN(c2cc(OCC34CCCN3CCC4)nc3cc(-c4cccc5cccc(Cl)c45)cnc23)C[C@@H]1CC#N` [Example 6, (S)-2-(4-(7-(8-chloronaphthalen-1-yl)-2-((tetrahydro-1H-pyrrolizin-7a(5H)-yl)methoxy)-1,5-naphthyridin-4-yl)-1-(2-fluoroacryloyl)piperazin-2-yl)acetonitrile], the IC50 came to 334 nM against KRAS G12C [3] and 59 nM against KRAS G12C [1].
`CN[C@@H]1C[C@H]2O[C@@](C)([C@@H]1OC)n1c3ccccc3c3c4c(c5c6ccccc6n2c5c31)C(=O)NC4` [Staurosporine, staurosporine, reference compound]: the IC50 in the data set with MIA PaCa-2 cells was 249 nM.

The IC50 is the concentration that gives 50% inhibition. As a reminder, the AUC(0-inf) is the area under the concentration-time curve extrapolated to infinity. A lower AUC(0-inf) goes with less exposure. The term AUC(0-t) denotes the area under the concentration-time curve up to a stated or last time point. Low values mean less exposure, high ones more exposure. By clearance is commonly meant the volume of plasma or blood freed of the substance per unit of time. A lower clearance goes with a low capacity for elimination. One may read the half-life as the time in which the quantity being followed falls by half. Lower therefore signals fast loss. By bioavailability is commonly meant the share of a dose that reaches the circulation, judged against a reference dose that is usually intravenous. A lower bioavailability goes with little systemic uptake. For orientation: Cmax means the peak of the concentration-time curve. Usually Tmax stands for the time at which the peak concentration occurs.
